Laboratory results published in patent US20050101673A1, “Use of orally available prostacyclin derivatives for the production of a pharmaceutical agent for treating diseases that are associated with bone marrow edemas” (Schering AG, priority 2002, published 2005).

Columns and labels:
osteonecrosis = conditions: five-day intravenous infusion; cited from earlier work
[1] = system: patients with osteonecrosis or osteoarthritis of the knee; test: Random, double-blind comparison study of oral iloprost versus Tramadol; type: in vivo, human
Experimental: To confirm the action of oral iloprost on the bone marrow edema and the pain, a random, double-blind comparison study was performed on the opiate Tramadol® in 41 patients with osteonecrosis or osteoarthritis of the knee in the period from March 2001 to November 2002 according to the GCP guidelines.
Patients of both sexes with resting pain because of an osteonecrosis or osteoarthritis were included in the study if the following criteria were met: • Age between 19 and 60 years, • Bone marrow edema found by means of MRT according to specified criteria.
The treatment was carried out either with iloprost capsules or with outwardly indistinguishable Tramadol capsules that were packaged and characterized according to valid GLP rules. Each capsule contained either 50 μg of iloprost or 50 mg of Tramadol®.
During the first three days of treatment, the study medication was administered in a dosage of 3×1 capsules during the day, which starting on day 4 could be increased individually to increase the success of the therapy (alleviation of pain) up to a maximum dose of 3×2 capsules during the day. In the case of poor tolerance, the dosage could always be reduced to a minimum dose of 2×1 capsules during the day.
The treatment period was one month, followed by a follow-up observation period of two months during which no treatment was given. Previously administered pain-relieving medications should be discontinued before the beginning of the study.
The clinical action of the treatment was determined based on the following parameters: • Evaluation of the intensity of the resting pain and the activity-related pain by the patient based on a 100 mm scale, whereby 0 means “no pain,” and 100 means “intolerable pain.” • Evaluation of the functional condition of the knee by means of Larson scores. • Evaluation of the bone marrow edema by means of MRT.

[2] = system: patients with painful bone marrow edema; test: 28-day treatment of patients with painful bone marrow edema (summary statements); type: in vivo, human; conditions: 28-day oral treatment; for pain and articulation: follow-up two months after end of treatment
Source text: Treatment with orally available prostacyclin derivatives, especially with cyclodextrin clathrates of the prostacyclin derivatives of formula I, thus represents a novel therapy that not only suppresses the symptoms, i.e., the pain, but combats the causes of osteonecrosis and osteoarthritis and for the first time can also be clinical, studied independently.
The β-cyclodextrin clathrate of iloprost, (5- {(1S,5S,6R,7R)-7-hydroxy-6-[(E)-(3R,4RS)-3-hydroxy-4-methyl-oct-1-en-6-inyl]-bicyclo[3.3.0]octane-3-ylidene}pentanoic acid)-β-cyclodextrin clathrate, is especially suitable.

[3] = after 28 days of treatment, persists 2 months without therapy
[4] = listed as iloprost β-cyclodextrin clathrate
[5] = listed as β-cyclodextrin clathrate of iloprost

## CC#CCC(C)[C@H](O)/C=C/[C@@H]1[C@H]2C/C(=C/CCCC(=O)O)C[C@H]2C[C@H]1O.NC(CO)(CO)CO (some centres unmarked) [Ilomedin®, iloprost-trometamol]
osteonecrosis
  pain in osteonecrosis: alleviation of pain in osteonecrosis can be achieved

## COc1cccc(C2(O)CCCCC2CN(C)C)c1 (centres unmarked) [Tramadol®, reference compound]
[1]; [3]
  activity-related pain, 100 mm visual analog scale: considerable reduction in pain
  resting pain, 100 mm visual analog scale: Almost complete freedom from pain
[1]; improvement persists 2 months without therapy
  knee activity score according to Larson (maximum score 100): pronounced increase
[1]; one month treatment, MRT
  patients with complete degeneration of the bone marrow edema in at least one affected bone: 19%

## CC#CCC(C)[C@H](O)/C=C/[C@@H]1[C@H]2C/C(=C/CCCC(=O)O)C[C@H]2C[C@H]1O (stereo partly drawn) [oral iloprost, (5-{(1S,5S,6R,7R)-7-hydroxy-6-[(E)-(3R,4RS)-3-hydroxy-4-methyl-oct-1-en-6-inyl]-bicyclo[3.3.0]octane-3-ylidene}pentanoic acid)-β-cyclodextrin clathrate]
[2]; [4]
  pain and articulation: alleviation of pain and the improved articulation could be observed even two months after the end of treatment
  bone marrow edema: reduced not only the bone marrow edema
  structural integrity of the bone, necrotic areas and lesions: restored the structural integrity
[2]; [5]
  pain and articulation: significant improvement of the pain
  bone marrow edema: significant reduction of the bone marrow edema
  structural integrity of the bone, necrotic areas and lesions: healing of necroses
